Data reported in US12503475B2 (Centessa Pharmaceuticals (UK) Limited, priority 2020, dated 2025).

Target: T1, human orexin type 2 receptor (hOX2R) (Homo sapiens, UniProt O43614)
T1 construct: expressed in transfected cells
T1 sequence (O43614 1-444): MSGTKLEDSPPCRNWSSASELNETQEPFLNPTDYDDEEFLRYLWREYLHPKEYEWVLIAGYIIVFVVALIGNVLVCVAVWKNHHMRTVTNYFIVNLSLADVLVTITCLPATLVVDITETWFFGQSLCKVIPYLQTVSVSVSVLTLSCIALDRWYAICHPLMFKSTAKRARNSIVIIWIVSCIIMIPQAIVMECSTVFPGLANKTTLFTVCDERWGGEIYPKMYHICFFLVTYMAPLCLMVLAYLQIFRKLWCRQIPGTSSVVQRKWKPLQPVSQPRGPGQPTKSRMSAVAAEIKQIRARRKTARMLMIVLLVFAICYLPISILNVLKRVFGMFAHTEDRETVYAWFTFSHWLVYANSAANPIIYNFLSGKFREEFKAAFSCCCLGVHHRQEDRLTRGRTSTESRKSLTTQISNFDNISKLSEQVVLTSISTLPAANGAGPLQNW
Test: Measurement of orexin type 2 receptor agonist activity (FLIPR calcium fluorescence)
Format: cell-based
Conditions: CHO cells expressing hOX2R, FLIPR calcium fluorescence; for EC50: read-out: hOx2 pEC50 (converted); for Emax: CHO, read-out: hOx2 Emax (%)
Outline: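 Agonism was read as fluorescence in cells stably expressing human OX2R. E. is the response at 10 μM relative to orexin A as full agonist (100%).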

| Compound | EC50 | Emax | hOx2 Emax (%) | hOx2 pEC50 |
| --- | --- | --- | --- | --- |
| [2H]C([2H])([2H])Oc1c(C[C@H]2[C@@H](NS(=O)(=O)CF)C3(CC3)CN2C(=O)NC([2H])([2H])C([2H])([2H])[2H])cccc1-c1ccccc1 [Compound 397, (6S,7S)-N-(ethyl-d5)-7-((fluoromethyl)sulfonamido)-6-((2-(methoxy-d3)-[1,1′-biphenyl]-3-yl)methyl)-5-azaspiro[2.4]heptane-5-carboxamide] | 1 to 10 nM | 80 to 90% |  |  |
| CC(C)(F)S(=O)(=O)N[C@@H]1[C@H](Cc2cccc(-c3ccccc3)c2F)N(C(=O)[C@H]2CCO2)CC12CC2 [Compound 398, 2-fluoro-N-((6S,7S)-6-((2-fluoro-[1,1′-biphenyl]-3-yl)methyl)-5-((R)-oxetane-2-carbonyl)-5-azaspiro[2.4]heptan-7-yl)propane-2-sulfonamide] | 1 to 10 nM | 90 to 100% |  |  |
| COC1CN(C(=O)N2CC3(CC3)[C@H](NS(=O)(=O)CF)[C@@H]2Cc2cccc(-c3cccc(F)c3)c2F)C1 [Compound 400, N-((6S,7S)-6-((2,3′-difluoro-[1,1′-biphenyl]-3-yl)methyl)-5-(3-methoxyazetidine-1-carbonyl)-5-azaspiro[2.4]heptan-7-yl)-1-fluoromethanesulfonamide] | 1 to 10 nM | 90 to 100% |  |  |
| O=C([C@H]1CCCO1)N1CC2(CC2)[C@H](NS(=O)(=O)CF)[C@@H]1Cc1cccc(-c2ccccc2)c1F [Compound 401, 1-fluoro-N-((6S,7S)-6-((2-fluoro-[1,1′-biphenyl]-3-yl)methyl)-5-((R)-tetrahydrofuran-2-carbonyl)-5-azaspiro[2.4]heptan-7-yl)methanesulfonamide] | 1 to 10 nM | 90 to 100% |  |  |
| COC1CN(C(=O)N2CC3(CC3)[C@H](NS(=O)(=O)CF)[C@@H]2Cc2cccc(-c3cc(F)cc(F)c3)c2F)C1 [Compound 402, 1-fluoro-N-((6S,7S)-5-(3-methoxyazetidine-1-carbonyl)-6-((2,3′,5′-trifluoro-[1,1′-biphenyl]-3-yl)methyl)-5-azaspiro[2.4]heptan-7-yl)methanesulfonamide] | 1 to 10 nM | 90 to 100% |  |  |
| N#CC1(C(=O)N2CC3(CC3)[C@H](NS(=O)(=O)C(F)F)[C@@H]2Cc2cccc(-c3ccccc3)c2F)CCC1 [Compound 403] | 1 to 10 nM | 90 to 100% |  |  |
| COC1(C(=O)N2CC3(CC3)[C@H](NS(=O)(=O)CF)[C@@H]2Cc2cc(F)cc(-c3ccccc3)c2F)CC1 [Compound 404, N-((6S,7S)-6-((2,5-difluoro-[1,1′-biphenyl]-3-yl)methyl)-5-(1-methoxycyclopropane-1-carbonyl)-5-azaspiro[2.4]heptan-7-yl)-1-fluoromethanesulfonamide] | 1 to 10 nM | 90 to 100% |  |  |
| O=C([C@H]1CCO1)N1CC2(CC2)[C@H](NS(=O)(=O)C2CC2)[C@@H]1Cc1cc(F)cc(-c2cc(F)cc(F)c2)c1F [Compound 405, N-((6S,7S)-5-((R)-oxetane-2-carbonyl)-6-((2,3′,5,5′-tetrafluoro-[1,1′-biphenyl]-3-yl)methyl)-5-azaspiro[2.4]heptan-7-yl)cyclopropanesulfonamide] | 1 to 10 nM | 90 to 100% |  |  |
| C[C@@H](F)C(=O)N1CC2(CC2)[C@H](NS(=O)(=O)C(F)F)[C@@H]1Cc1cc(F)cc(-c2cc(F)cc(F)c2)c1F [Compound 406, 1,1-difluoro-N-((6S,7S)-5-((R)-2-fluoropropanoyl)-6-((2,3′,5,5′-tetrafluoro-[1,1′-biphenyl]-3-yl)methyl)-5-azaspiro[2.4]heptan-7-yl)methanesulfonamide] | 0.0794 to 1 nM | 90 to 100% |  |  |
| CCS(=O)(=O)N[C@@H]1[C@H](Cc2cc(F)cc(-c3cc(F)cc(F)c3)c2F)N(C(=O)[C@H]2CCO2)CC12CC2 [Compound 407, N-((6S,7S)-5-((R)-oxetane-2-carbonyl)-6-((2,3′,5,5′-tetrafluoro-[1,1′-biphenyl]-3-yl)methyl)-5-azaspiro[2.4]heptan-7-yl)ethanesulfonamide] | 1 to 10 nM | 90 to 100% |  |  |
| N#C[C@]1(C(=O)N2CC3(CC3)[C@H](NS(=O)(=O)C(F)F)[C@@H]2Cc2cccc(-c3ccccc3)c2F)CCO1 [Compound 408, N-((6S,7S)-5-((S)-2-cyanooxetane-2-carbonyl)-6-((2-fluoro-[1,1′-biphenyl]-3-yl)methyl)-5-azaspiro[2.4]heptan-7-yl)-1,1-difluoromethanesulfonamide] | 1 to 10 nM | 90 to 100% |  |  |
| CC(F)(F)CNC(=O)N1CC2(CC2)[C@H](NS(=O)(=O)CF)[C@@H]1Cc1cccc(-c2ccccc2)c1F [Compound 409] | 1 to 10 nM | 90 to 100% |  |  |
| CC(C)(F)CNC(=O)N1CC2(CC2)[C@H](NS(=O)(=O)CF)[C@@H]1Cc1cccc(-c2ccccc2)c1F [Compound 410, (6S,7S)-N-(2-fluoro-2-methylpropyl)-6-((2-fluoro-[1,1′-biphenyl]-3-yl)methyl)-7-((fluoromethyl)sulfonamido)-5-azaspiro[2.4]heptane-5-carboxamide] | 1 to 10 nM | 90 to 100% |  |  |
| O=C(NCC(F)F)N1CC2(CC2)[C@H](NS(=O)(=O)CF)[C@@H]1Cc1cccc(-c2cc(F)cc(F)c2)c1F [Compound 411] | 0.0794 to 1 nM | 90 to 100% |  |  |
| O=C(NCC1(F)CC1)N1CC2(CC2)[C@H](NS(=O)(=O)CF)[C@@H]1Cc1cccc(-c2cc(F)cc(F)c2)c1F [Compound 412, (6S,7S)-N-((1-fluorocyclopropyl)methyl)-7-((fluoromethyl)sulfonamido)-6-((2,3′,5′-trifluoro-[1,1′-biphenyl]-3-yl)methyl)-5-azaspiro[2.4]heptane-5-carboxamide] | 1 to 10 nM | 90 to 100% |  |  |
| N#CC1(C(=O)N2CC3(CC3)[C@H](NS(=O)(=O)CF)[C@@H]2Cc2cc(F)cc(-c3ccccc3)c2F)CCC1 [Compound 413, N-((6S,7S)-5-(1-cyanocyclobutane-1-carbonyl)-6-((2,5-difluoro-[1,1′-biphenyl]-3-yl)methyl)-5-azaspiro[2.4]heptan-7-yl)-1-fluoromethanesulfonamide] | 0.0794 to 1 nM | 90 to 100% |  |  |
| C[C@@H](F)C(=O)N1CC2(CC2)[C@H](NS(=O)(=O)CF)[C@@H]1Cc1cc(F)cc(-c2cc(F)cc(F)c2)c1F [Compound 414, 1-fluoro-N-((6S,7S)-5-((R)-2-fluoropropanoyl)-6-((2,3′,5,5′-tetrafluoro-[1,1′-biphenyl]-3-yl)methyl)-5-azaspiro[2.4]heptan-7-yl)methanesulfonamide] | 0.0794 to 1 nM | 90 to 100% |  |  |
| O=C(NCC1(F)CC1)N1CC2(CC2)[C@H](NS(=O)(=O)CF)[C@@H]1Cc1cc(F)cc(-c2cc(F)cc(F)c2)c1F [Compound 415, (6S,7S)-N-((1-fluorocyclopropyl)methyl)-7-((fluoromethyl)sulfonamido)-6-((2,3′,5,5′-tetrafluoro-[1,1′-biphenyl]-3-yl)methyl)-5-azaspiro[2.4]heptane-5-carboxamide] | 1 to 10 nM | 90 to 100% |  |  |
| O=C(NCC1(F)CC1)N1CC2(CC2)[C@H](NS(=O)(=O)C(F)F)[C@@H]1Cc1cc(F)cc(-c2cc(F)cc(F)c2)c1F [Compound 416, (6S,7S)-7-((difluoromethyl)sulfonamido)-N-((1-fluorocyclopropyl)methyl)-6-((2,3′,5,5′-tetrafluoro-[1,1′-biphenyl]-3-yl)methyl)-5-azaspiro[2.4]heptane-5-carboxamide] | 1 to 10 nM | 90 to 100% |  |  |
| O=C(NCC1(F)CC1)N1CC2(CC2)[C@H](NS(=O)(=O)C(F)F)[C@@H]1Cc1cc(F)cc(-c2ccccc2)c1F [Compound 417, (6S,7S)-6-(2,5-difluoro-[1,1′-biphenyl]-3-yl)methyl)-7-((difluoromethyl)sulfonamido)-N-((1-fluorocyclopropylmethyl)-5-azaspiro[2.4]heptane-5-carboxamide] | 1 to 10 nM | 90 to 100% |  |  |
| C[C@@H](F)C(=O)N1CC2(CC2)[C@H](NS(=O)(=O)CF)[C@@H]1Cc1cc(F)cc(-c2ccccc2)c1F [Compound 418] | 1 to 10 nM | 90 to 100% |  |  |
| CC(C)(O)C(=O)N1CC2(CC2)[C@H](NS(=O)(=O)CF)[C@@H]1Cc1cc(F)cc(-c2cc(F)cc(F)c2)c1F [Compound 419, 1-fluoro-N-((6S,7S)-5-(2-hydroxy-2-methylpropanoyl)-6-((2,3′,5,5′-tetrafluoro-[1,1′-biphenyl]-3-yl)methyl)-5-azaspiro[2.4]heptan-7-yl)methanesulfonamide] | 1 to 10 nM | 90 to 100% |  |  |
| O=C([C@H]1CCO1)N1CC2(CC2)[C@H](NS(=O)(=O)C2(F)CC2)[C@@H]1Cc1cccc(-c2ccccc2)c1F [Compound 420, 1-fluoro-N-((6S,7S)-6-((2-fluoro-[1,1′-biphenyl]-3-yl)methyl)-5-((R)-oxetane-2-carbonyl)-5-azaspiro[2.4]heptan-7-yl)cyclopropane-1-sulfonamide] | 0.0794 to 1 nM | 90 to 100% |  |  |
| (6S,7S)-6-(2,5-difluoro-[1,1′- biphenyl]-3-yl)methyl)-7- ((difluoromethyl)sulfonamido)- N-((S)-1-fluoroethyl)-5- azaspiro[2.4]heptane-5- carboxamide [Compound 216] |  |  | A (Emax ranging between 90 and 100) | **** (pEC50 ranging between 8.0 and 9.0) |
